Article PMC12257510, “Structure-Guided Design of a KMT9 Inhibitor Prodrug with Cellular Activity” (Journal of Medicinal Chemistry, 2025)

What was measured:
[1] = molecular target: T1, KMT9a (Homo sapiens, UniProt Q9Y5N5); test: CETSA in Caco-2 cells, KMT9; type: cell-based; parameters: of endogenous KMT9 upon treatment with; endogenous in cells; host or cells: Caco-2
T1 sequence (Q9Y5N5 1-214): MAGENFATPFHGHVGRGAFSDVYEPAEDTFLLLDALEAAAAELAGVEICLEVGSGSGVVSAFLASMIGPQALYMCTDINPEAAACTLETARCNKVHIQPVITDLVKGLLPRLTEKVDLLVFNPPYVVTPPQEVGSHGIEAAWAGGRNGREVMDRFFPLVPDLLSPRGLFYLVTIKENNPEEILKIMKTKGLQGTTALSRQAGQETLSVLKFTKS
T1 sequence (Q9UI30 1-125 partner): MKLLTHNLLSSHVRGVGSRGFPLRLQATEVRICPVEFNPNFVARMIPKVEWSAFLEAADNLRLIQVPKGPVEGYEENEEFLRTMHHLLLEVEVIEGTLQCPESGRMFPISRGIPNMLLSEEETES
Method: (§1) For whole cell CETSA, the cells were incubated with 10/15 μM of compound 7b/8/8-N for 18 h. Then, cells were washed with cell culture medium, detached from the surface using trypsin, washed with PBS and the number of cells was determined. Cell concentration was adjusted to 3.6 × 10^7 cells/mL using in PBS with Complete (w/o EDTA, Roche) protease inhibitor. Then, cells were frozen in liquid nitrogen and thawed at 25 °C three times, before being divided in 16 aliquots. Each aliquot was heated to a defined temperature between 40 and 70 °C in a PCR cycler (16 well gradient, 55 °C ± 15). After 3 min incubation, aliquots were snap frozen in liquid nitrogen and thawed at 25 °C. Cell lysates were then centrifuged at 20,000 × g , 4 °C for 20 min. Supernatant were mixed with 5× loading buffer, heated to 70 °C for 5 min and analyzed by Western blotting essentially as previously described. For the CETSA performed with cell lysates, cells were directly harvested and lysed as described above. […]
(§2) Figure S4. […] Representative Western blots (A) and quantification (B) showing no obvious shifting melting temperatures (ΔT m) of endogenous KMT5A upon treatment with compound 7b compared to DMSO. […]
(§3) Representative Western blots (C) and quantification (D) showing no shifting melting temperatures (ΔT m) of endogenous KMT5A upon treatment with compound 8 compared to DMSO. […]

[2] = molecular target: T2, KMT5A (Homo sapiens, UniProt Q9NQR1); test: CETSA in intact SW480 cells, KMT5A; type: cell-based; parameters: endogenous in cells; host or cells: SW480
T2 sequence (Q9NQR1 1-393): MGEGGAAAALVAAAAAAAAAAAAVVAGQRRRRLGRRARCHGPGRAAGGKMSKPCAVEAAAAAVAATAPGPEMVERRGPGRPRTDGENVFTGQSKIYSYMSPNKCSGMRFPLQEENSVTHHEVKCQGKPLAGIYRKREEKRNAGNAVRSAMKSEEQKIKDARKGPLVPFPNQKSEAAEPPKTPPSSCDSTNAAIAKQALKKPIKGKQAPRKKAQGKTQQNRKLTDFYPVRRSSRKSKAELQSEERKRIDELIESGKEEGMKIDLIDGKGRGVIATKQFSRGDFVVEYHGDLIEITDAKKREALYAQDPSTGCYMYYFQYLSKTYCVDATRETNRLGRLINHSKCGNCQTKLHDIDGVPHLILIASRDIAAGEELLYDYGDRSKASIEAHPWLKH
Method: as §1, §2, §3

[3] = system: Caco-2 cells; test: Cell proliferation assay (X-Celligence), Caco-2; type: cell-based; conditions: Xcelligence, vs DMSO
Method: Cell proliferation was determined using the X-Celligence RTCA system (Roche). For real-time recording of SW480, Caco-2 cell proliferation, 5000 cells/well were seeded in 16 well E-plates (Roche). […] Cell indices were automatically recorded every 15 min. Relative velocities represent the change of the cell index over time. The sequences of the siRNAs (Stealth RNAi siRNAs; Life Technologies) used in the experiments have been previously described.

[4] = system: HepG2 cells; test: Cell proliferation assay, HepG2; type: cell-based, human; conditions: vs DMSO
[5] = molecular target: T2, KMT5A; test: CETSA in HepG2 cells, KMT5A; type: cell-based; parameters: KMT5A upon treatment with compound 8 compared to DMSO; endogenous in cells; host or cells: HepG2
Method: as §1
Figure S5. […] Representative Western blots (D) and quantification (E) showing increased melting temperatures (ΔT m) of endogenous KMT9a upon treatment with compound 8 compared to DMSO. […] Representative Western blots (F) and quantification (G) showing no obvious shifting melting temperatures (ΔT m) of endogenous KMT5A upon treatment with compound 8 compared to DMSO. […]

ΔTm at 15 µM [1]: 6.1 °C | ΔTm at 10 µM [2]: -0.6 °C | ΔTm at 15 µM [5]: 0.1 °C
Compound: CCOC(=O)[C@@H](N)CCN(CCCNCCc1ccc(Oc2ccc(Cl)cc2)c(F)c1)C[C@H]1C[C@@H](n2ccc3c(NC)ncnc32)[C@H](O)[C@@H]1O [compound 8, Ethyl (S)-2-amino-4-((3-((4-(4-chlorophenoxy)-3-fluorophenethyl)amino)propyl) (((1R,2R,3S,4R)-2,3-dihydroxy-4-(4-(methylamino)-7H-pyrrolo[2,3-d]pyrimidin-7-yl)cyclopentyl)methyl)amino)butanoate]
Proliferation of Caco-2 cells [3]: strongly suppressed proliferation | Proliferation of HepG2 cells [4]: did not affect cell proliferation
